Laboratory results: the METLIN SMRT retention time set (Domingo-Almenara et al. 2019)

Assay: gradient 5% acetonitrile 3 min, to 50% in 2 min, to 85% in 15 min, held 3 min, 100 µL/min
Conditions: column: Zorbax Extend-C18 2.1 x 50 mm; eluents: water / acetonitrile, 0.1% formic acid
Method in brief: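 Retention times of pure standards were taken from adduct peaks that were selected by computer and manually inspected. Over 3 months, mixtures of ~100 molecules were run by HPLC–quadrupole time-of-flight mass spectrometry in positive and negative ionization mode. The Zorbax Extend-C18 column (2.1 × 50 mm, 1.8 μm) ran at 100 μL/min in water and acetonitrile, each containing 0.1% formic acid, with 40 μL dead volume and 900 μL dwell volume.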

Compound | RP-LC retention time [s]
COc1ccc2nc(CN3CCN(S(=O)(=O)c4cccs4)CC3)[nH]c2c1 | 584
COc1ccc(CNC(=O)N2CCC(n3c(-c4ccco4)nc4cccnc43)C2)cc1 (configuration not stated) | 759
O=C(O)c1nnn(-c2ccccc2F)c1-c1ccccn1 | 657
CN(CC1(C)CCOCC1)C(=O)Cc1c(F)cccc1Cl | 863
CCN(CC)CCNc1ncnc2onc(-c3ccc(Cl)cc3)c12 | 664
Cc1cc2c(cc1CNC(=O)c1cc3c(cc1C)OCCCO3)OCCO2 | 846
O=C(NCCc1c[nH]c2ccccc12)c1cc(=O)[nH]c2ccccc12 | 682
O=S(=O)(NCCC1=CCCCC1)c1ccccc1-c1nc(-c2cccc(F)c2)no1 | 1400
COC(=O)c1cc2c(=O)n(CCc3c[nH]c4ccc(OC)cc34)ccc2nc1C | 774
COc1ccc(OC)c(S(=O)(=O)N2CCCN(S(=O)(=O)c3ccccc3)CCC(=O)NCC2)c1 | 793
Cc1nn(-c2ccccc2)c(C)c1S(=O)(=O)N1CCC(C(=O)NC2CCCCC2)CC1 | 912
NC1=N[C@@]2(c3cc(NC(=O)c4ccc(F)cn4)ccc3F)COC[C@H]2CS1 | 674
O=C(CSc1nncc2ccccc12)NCCc1ccccc1 | 687
CCCc1cc(N2CCN(C(=O)c3ccco3)CC2)nc2nnc(CC)n12 | 617
CC1(C(=O)NCc2ccccc2)CCCN(C(=O)NCCc2ccccc2)C1 (configuration not stated) | 840
CSc1ncccc1C(=O)NCC(O)c1ccsc1 (configuration not stated) | 626
Cc1ccc(NS(=O)(=O)c2cc3n(c2)CCN(CC(C)C)C3=O)cc1 | 794
CCOc1ccccc1CNC(=O)Cn1c(CC)nc2onc(C)c2c1=O | 865
COc1ccc(CCNC(=O)C2CCN(S(C)(=O)=O)c3ccccc3O2)cc1 (configuration not stated) | 828
COc1ccc(-c2c(C)noc2NC(C)=O)cc1S(=O)(=O)Nc1ccc(Cl)cc1 | 766
CCCn1cnc2cc(CNC(=O)c3ccc(C(F)(F)F)cc3)ccc21 | 674
CC(C)CC(=O)N1CCCC(c2nc(CCNC(=O)C3CCC3)cs2)C1 (configuration not stated) | 734
O=C(NCCCN1CCCC1)c1cc2n(n1)CCCN(Cc1ccc(Cl)cc1)C2=O | 640

Compound | RP-LC retention time [s]
CCN1C(=O)CCc2cc(NC(=O)Cc3cccc(OC)c3)ccc21 | 757
Cc1ccc(NC(=O)C2CCCN(c3ncnc4c3nc3n4CCCCC3)C2)cc1Cl (configuration not stated) | 958
CC(C)n1cnc2cc(CNC(=O)c3ccc(F)cc3F)ccc21 | 623
O=C(Nc1ccc(F)cc1)N1CCN(Cc2nc3cccnc3n2-c2ccc(F)cc2)CC1 | 624
Cc1nccn1Cc1noc(-c2ccc(Cl)cc2)n1 | 638
Fc1cccc(-c2noc(-c3nc(-c4ccc5c(c4)OCO5)no3)n2)c1 | 1220
Cc1nc(-c2ccc(Cl)cc2)sc1CCNC(=O)c1ccco1 | 946
Cc1occc1C(=O)N1CC(F)(F)C[C@H]1c1nc(C2CC2)no1 | 726
COc1cc(/C=C2\CCOC2=O)cc(OC)c1OC | 802
O=C(O)c1nnn(-c2ccc3c(c2)CCC3)c1-c1ccncc1 | 662
Cc1ccc(-n2ncc3c(NCc4ccc5c(c4)OCO5)ncnc32)cc1 | 939
Cc1ccc2[nH]c(=O)c(CCC(=O)N3CCN(C4CCCCC4)CC3)cc2c1 | 619
Cc1ccc(NC(=O)N2CCN(c3nc4ccccc4nc3C(F)(F)F)CC2)cc1F | 1150
CCN1C(=O)C(CC(=O)NCCC(C)C)Sc2ncccc21 (configuration not stated) | 738
CC1CCCCN1CCNC(=O)CCCn1c2ccccc2c2cnn(C)c(=O)c21 (configuration not stated) | 632
O=c1[nH]c2ccc(NCc3cccc(Cl)c3Cl)cc2[nH]1 | 728
CONC(=O)Cc1csc(Nc2cc(C)ccn2)n1 | 526
Cc1nnc(N2CCCC(C(=O)NC3CCCCCC3)C2)c2nn(-c3ccc(Cl)cc3)c(C)c12 (configuration not stated) | 831
COc1ccc2c(c1)C1(CCN(C(=O)Cc3ccc(Cl)cc3)C1)C(=O)N2C (configuration not stated) | 873
O=C(Cc1nnc2cc(-c3nc(C4CC4)no3)ccn12)NCc1ccc(Cl)cc1 | 798
CCOC(=O)c1ccc2nc(NC(=O)c3ccco3)sc2c1 | 830
O=C(CN1CCN(Cc2ccc(F)cc2)C1=O)NCc1ccc(N2CCOCC2)cc1 | 712
O=C(CC1CCCC1)N1CCCCC1c1nncn1Cc1ccccc1 (configuration not stated) | 890

Compound | RP-LC retention time [s]
Cc1cc(N2CCOCC2)nc(N2CCN(S(=O)(=O)c3cc(C)c(C)cc3C)CC2)n1 | 733
COc1ccccc1NC(=O)C1CCN(S(=O)(=O)c2cc(-c3noc(C)n3)cs2)CC1 | 918
O=C1NCCCCCCN[C@H]2C[C@H](C(=O)N3CCc4ccccc4C3)C[C@@H]12 | 612
Cc1ccc(NC(=O)N2CCC(c3nc(C(=O)N(C)C)c(C)o3)CC2)cc1Cl | 799
CCn1c(=O)c2c(nc3n2CCCN3C2CCCCC2)n(C)c1=O | 899
Cc1ccc(NC(=O)CN2CCc3[nH]c4c(C)cc(F)cc4c(=O)c3C2)c(Cl)c1 | 665
O=C(CN1C(=O)COc2ccc(C(=O)N3CCc4ccccc43)cc21)N1CCCC1 | 760
Cc1ccc2[nH]cc(CCN3CC(C(=O)Nc4ccc5c(c4)OCCO5)CC3=O)c2c1 (configuration not stated) | 777
O=C(NCc1cccc(F)c1)N1C[C@@H]2C[C@H](NS(=O)(=O)c3cccnc3)[C@H]1C2 | 688
Cc1ccc(CNC(=O)C2(C)CCCN(C(=O)Nc3cccc(F)c3)C2)cc1 (configuration not stated) | 967
CCOC(=O)N1CCc2c(sc(NC(=O)C3CCCN(S(C)(=O)=O)C3)c2C#N)C1 (configuration not stated) | 767
CCCNC(=O)C1CCCN(c2nc3ncn(CC(=O)NC4CCc5ccccc54)c(=O)c3s2)C1 (configuration not stated) | 709
O=C(NCc1csc(-c2cccs2)n1)C1CCN(S(=O)(=O)c2ccccc2F)CC1 | 860
Cn1cc(NC(=O)N2CCN(c3ccccn3)CC2)c2ccccc2c1=O | 538
CCOc1ccccc1NC(=O)N1CCN(c2cc(C)nc(N3CCCC3)n2)CC1 | 692
O=C(NCCCn1c(-c2ccncc2)nc2cccnc21)NCCc1ccccc1 | 649
O=C(c1ccc(F)c(Cl)c1)N1CCN=C1N1CCCCC1 | 673
Cc1cc(C)n2c(Nc3ccccc3)c(-c3ccccc3)nc2n1 | 671
Cc1cc2[nH]c(C(=O)Nc3cccc(Cl)c3F)c(CN3CCOCC3)c2s1 | 768
COc1ccc(NS(=O)(=O)c2cc3n(c2)CCN(C(C)C)C3=O)cc1 | 717
COc1ccc(S(=O)(=O)N2CCC(n3cnnc3-c3ccccc3)CC2)cc1 | 783
